One series concerns CFA-induced pain model. The series can be described thus: Antiallodynic activity on Complete Freund's Adjuvant (CFA)-induced inflammatory pain model (von Frey). The format is in vivo, Sprague-Dawley rats. The settings on record: ip.
Series [1] has as its system hot plate withdrawal latency. The series can be described thus: Hot-plate test. The series is classed as in vivo, ICR mice. The settings on record: mouse, oral. As to the method: To examine the pain relief effect of the sulfamate derivative compounds, a hot-plate test was conducted referring to Current Protocols in Neuroscience; Behavioral Neuroscience Unit 8.9.
ICR mice (male, 30-35 g; Orient Bio, Korea) were habituated before the test in the test room for 1 hour. Animals were fasted 2 hr before administration of the compounds. […] All compounds were dissolved in a vehicle of 30% (v/v) PEG 400 or 20% (v/v) Tween 80. The control group was treated with vehicle without treatment compounds.
0.5 hr after the administration of compounds, the mice were put on a hot plate pre-heated to 55±1° C. (Hu, X. et al, 2008), and then, the withdrawal latency was measured (cut-off time: 30 sec) until the point when each mouse was taking a paw off from the plate, shaking, licking a paw or hind leg, or jumping from the plate.
For orientation: Hot-plate and tail-flick tests time the reaction to a heat stimulus.

Setting [2] is: Rattus norvegicus, 0.5 h, read-out: CFA model: ED50 mg/kg.

The structures appear in SMILES notation. Where two headings read alike, the source gives them in different places.

As to `CC1(C)Oc2ccccc2[C@@H](COS(N)(=O)=O)O1` [Example 2, ((S)-2,2-dimethyl-4H-benzo[d][1,3]dioxin-4-yl)methyl sulfamate], the ED50 is 18.8 mg/kg with CFA-induced pain model (rat, intraperitoneal, 0.5 h, read-out: CFA model: ED50) and 170 mg/kg in series [1] (0.5 h).
As for `CC1(C)Oc2ccccc2[C@H](COS([NH-])(=O)=O)O1.[Na+]` [Example 58, Sodium (R)-(((2,2-dimethyl-4H-benzo[d][1,3]dioxin-4-yl)methoxy)sulfonyl)amide Trihydrate], in the series with CFA-induced pain model (setting [2]), the ED50 stood at 23.3 mg/kg.
In the case of `CC1(C)Oc2ccccc2C(COS([NH-])(=O)=O)O1.[Na+]` (centres unmarked) [Example 60, Sodium (((2,2-dimethyl-4H-benzo[d][1,3]dioxin-4-yl)methoxy)sulfonyl)amide Trihydrate], the ED50 in the series with CFA-induced pain model (Rattus norvegicus, 1 h, read-out: CFA model: ED50 mg/kg) came to 25 mg/kg. For the same molecule, the “Hot plate test: effect (%) compared to control” value in series [1] (170 mg/kg administered, time not given) is recorded as “(196.2%)”.
As a reminder, the melting point is the temperature of the solid-liquid transition. The molecule `[NH-]S(=O)(=O)OC[C@H]1OC2(CCCC2)Oc2ccccc21.[Na+]` [Example 65, Sodium (S)-(((4H-spiro[benzo[d][1,3]dioxine-2,1′-cyclopentan]-4-yl)methoxy)sulfonyl)amide] gave a melting point of 121.2 to 131.9 °C. In addition, the ED50 in the series with CFA-induced pain model (setting [2]) worked out at 89.1 mg/kg.
Consider `CC1(C)Oc2ccccc2[C@H](COS([NH-])(=O)=O)O1.[K+]` [Example 70, Potassium (R)-(((2,2-dimethyl-4H-benzo[d][1,3]dioxin-4-yl)methoxy)sulfonyl)amide], for which the response vs control in vivo at 25 mg/kg in the series with CFA-induced pain model (Rattus norvegicus, 0.5 h, read-out: CFA model: effect (%) compared to control) was determined as 10.5%.

(Values after patent US10081615B2, “Sulfamate derivative compounds for use in treating or alleviating pain” (Bio-Pharm Solutions Co., Ltd., priority 2013, dated 2018).)
